For one assay, the target named is recombinant human PARP (Homo sapiens, UniProt P09874). In words: Measurement of PARP enzymatic activity (transfer of radiolabeled ADP-ribose from NAD+ to protein acceptor). The format is biochemical. The following applies: PARP IC50 (nM), Table 2. The procedure: PARP activity was monitored by transfer of radiolabeled ADP-ribose units from [^32]NAD^+ to a protein acceptor such as histone or PARP itself. […] The reactions were initiated by the addition of 100 μM NAD^+ supplemented with 2 uCi [^32]NAD^+/mL and maintained at room temperature for 12 minutes. […] The amount of acid-insoluble radioactivity, corresponding to polyADP-ribosylated protein, was quantitated in a Wallac MicroBeta scintillation counter.
Sequence of recombinant human PARP (P09874 whole entry): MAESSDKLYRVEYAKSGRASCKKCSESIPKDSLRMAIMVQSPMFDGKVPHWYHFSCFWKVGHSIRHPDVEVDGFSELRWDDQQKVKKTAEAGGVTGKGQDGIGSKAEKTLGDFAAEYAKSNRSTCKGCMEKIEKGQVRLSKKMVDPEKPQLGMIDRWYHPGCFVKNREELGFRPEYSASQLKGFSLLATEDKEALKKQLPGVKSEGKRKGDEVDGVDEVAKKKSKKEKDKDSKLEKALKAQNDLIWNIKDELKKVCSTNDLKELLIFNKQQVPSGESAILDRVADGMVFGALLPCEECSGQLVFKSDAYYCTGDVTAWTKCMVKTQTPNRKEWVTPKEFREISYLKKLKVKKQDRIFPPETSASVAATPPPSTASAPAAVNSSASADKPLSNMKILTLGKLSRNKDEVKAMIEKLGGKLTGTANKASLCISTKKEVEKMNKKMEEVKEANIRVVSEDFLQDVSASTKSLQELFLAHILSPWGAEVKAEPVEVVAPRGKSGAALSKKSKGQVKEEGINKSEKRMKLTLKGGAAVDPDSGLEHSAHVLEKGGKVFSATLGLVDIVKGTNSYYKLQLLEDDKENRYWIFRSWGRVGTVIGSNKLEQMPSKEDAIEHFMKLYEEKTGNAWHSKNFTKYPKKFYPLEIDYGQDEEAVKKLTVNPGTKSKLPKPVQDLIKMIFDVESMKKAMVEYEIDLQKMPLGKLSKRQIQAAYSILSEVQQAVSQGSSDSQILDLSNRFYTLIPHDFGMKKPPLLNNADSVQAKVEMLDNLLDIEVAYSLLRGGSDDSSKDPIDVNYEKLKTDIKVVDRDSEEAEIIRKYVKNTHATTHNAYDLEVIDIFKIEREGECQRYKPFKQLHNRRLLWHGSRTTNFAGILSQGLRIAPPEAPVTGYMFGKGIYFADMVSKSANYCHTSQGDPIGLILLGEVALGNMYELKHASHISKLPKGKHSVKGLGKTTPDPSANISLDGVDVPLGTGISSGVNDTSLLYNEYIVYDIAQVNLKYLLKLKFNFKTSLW
Single-point inhibition data were calculated by comparing PARP, VEGFR2, or MLK3 activity in the presence of inhibitor to activity in the presence of DMSO only. Inhibition curves for compounds were generated by plotting percent inhibition versus log10 of the concentration of compound. IC50 values were calculated by nonlinear regression using the sigmoidal dose-response (variable slope) equation in GraphPad Prism as follows: y=bottom+(top−bottom)/(1+10^(log IC50^−x)*Hillslope) where y is the % activity at a given concentration of compound, x is the logarithm of the concentration of compound, bottom is the % inhibition at the lowest compound concentration tested, and top is the % inhibition at the highest compound concentration examined. The values for bottom and top were fixed at 0 and 100, respectively. IC50 values were reported as the average of at least three separate determinations.
For some compounds, inhibiting data is presented as percent inhibition at a specified concentration. Compounds are tabulated together with compound number, substituents, and enzyme inhibition data.
`O=C(NCc1nc(-c2ccc3[nH]c4c5c(c6c(c4c3c2)C(=O)NC6=O)CCC5)cs1)OCc1ccccc1` [Compound 3j]: the half-inhibitory concentration (IC50) was 20 nM. On to `O=C(CBr)c1ccc2[nH]c3c4c(c5c(c3c2c1)C(=O)NC5=O)CCC4` [Compound 2e], for which the 50% inhibitory concentration (IC50) came to 13 nM. `O=C1NC(=O)c2c1c1c(c3[nH]c4ccc(-c5csc(CNC(=O)C6CCCC6)n5)cc4c23)CCC1` [Compound 3x]: the concentration for half-maximal inhibition (IC50) came to 52 nM.

The assay is the same for the next values; noted with them: PARP IC50 (nM), Table 8.
Turning to `O=C(NCCc1ccccn1)Oc1ccc2[nH]c3c4c(c5c(c3c2c1)C(=O)NC5=O)CCC4` [Compound 15m], the IC50 worked out at 31 nM.

As for `CN1CCN(C(=O)Oc2ccc3[nH]c4c5c(c6c(c4c3c2)C(=O)NC6=O)CCC5)CC1` [Compound 15b], the 50% inhibitory concentration (IC50) was found to be 51 nM.

The assay is the same for the next values; noted with them: Table 1; read-out: PARP IC50.
Turning to `NCC(=O)N1C(=O)c2c3c(c4[nH]c5ccccc5c4c2C1=O)CCC3` [Compound 1m], the IC50 turned out to be 38 nM.

On to `NCCC(=O)N1C(=O)c2c3c(c4[nH]c5ccccc5c4c2C1=O)CCC3` [Compound 1l], for which the IC50 came to 160 nM. For `O=C1NC(=O)c2c1c1c(c3[nH]c4ccccc4c23)CCC1` [Compound 1a, 5,7,8,9,10,11-hexahydrocyclopent[a]pyrrolo[3,4-c]carbazole-5(6H), 7-dione], the IC50 was 36 nM.

Still in this assay, the particulars now being: Table 2; read-out: PARP IC50.
Take `CC(C)(C)OC(=O)NCCCC(=O)NCc1ccc2[nH]c3c4c(c5c(c3c2c1)C(=O)NC5=O)CCC4` [Compound 2w, 3-(N-(4-(N-Boc-amino)butanoyl)aminomethyl)-5,7,8,9,10,11-hexahydrocyclopent[a]pyrrolo[3,4-c]carbazole-5(6H), 7-dione]: the IC50 amounted to 33 nM. In the case of `NC(CCCNc1nc(-c2ccc3[nH]c4c5c(c6c(c4c3c2)C(=O)NC6=O)CCC5)cs1)C(=O)O` (centres unmarked) [Compound 3f], the IC50 is 22 nM. Regarding `O=C1NC(=O)c2c1c1c(c3[nH]c4ccc(-c5csc(NC6OC(CO)C(O)C(O)C6O)n5)cc4c23)CCC1` (centres unmarked) [Compound 3ab], the 50% inhibitory concentration (IC50) was determined as 17 nM.

As for `O=C(NCCc1ccccn1)c1ccc2[nH]c3c4c(c5c(c3c2c1)C(=O)NC5=O)CCC4` [Compound 2cv], the IC50 came out at 18 nM.

For `CC(C)C(=O)NCc1nc(-c2ccc3[nH]c4c5c(c6c(c4c3c2)C(=O)NC6=O)CCC5)cs1` [Compound 3t], the IC50 is 32 nM. Still for that read-out and setting: the figure for `N#Cc1ccc2[nH]c3c4c(c5c(c3c2c1)C(=O)NC5=O)CCC4` [Compound 2o, 3-Cyano-5,7,8,9,10,11-hexahydrocyclopent[a]pyrrolo[3,4-c]carbazole-5(6H), 7-dione] is 14 nM; for `CCOCc1ccc2[nH]c3c4c(c5c(c3c2c1)C(=O)NC5=O)CCC4` [Compound 2de] it is 43 nM. With `O=C1NC(=O)c2c1c1c(c3[nH]c4ccc(C(=O)N(CCO)CCO)cc4c23)CCC1` [Compound 2dc], the IC50 stood at 18 nM. Turning to `Cc1ccc2[nH]c3c4c(c5c(c3c2c1)C(=O)NC5=O)CCC4` [Compound 2bf], the IC50 amounted to 82 nM. `O=C1NC(=O)c2c1c1c(c3[nH]c4ccc(S(=O)(=O)O)cc4c23)CCC1` [Compound 2ae]: the IC50 turned out to be 8 nM.

In the case of `O=C1NC(=O)c2c1c1c(c3[nH]c4ccc(CO)cc4c23)CCC1` [Compound 2aw], the IC50 was 22 nM.

Turning to `CC(C)(C)OC(=O)NCc1ccc2[nH]c3c4c(c5c(c3c2c1)C(=O)NC5=O)CCC4` [Compound 2ad, 3-(N-Boc-aminomethyl)-5,7,8,9,10,11-hexahydrocyclopent[a]pyrrolo[3,4-c]carbazole-5(6H), 7-dione], the IC50 was 93 nM. For the compound `O=C1NC(=O)c2c1c1c(c3[nH]c4ccc(CNS(=O)(=O)c5ccccc5)cc4c23)CCC1` [Compound 2cd], the concentration for half-maximal inhibition (IC50) was 39 nM.

Turning to `O=C(NCCN1CCOCC1)c1ccc2[nH]c3c4c(c5c(c3c2c1)C(=O)NC5=O)CCC4` [Compound 2cn], the 50% inhibitory concentration (IC50) is 26 nM. Consider `CCN(CC)CCOc1ccc2[nH]c3c4c(c5c(c3c2c1)C(=O)NC5=O)CCC4` [Compound 2ar], for which the IC50 is 88 nM.

For the compound `CN(C)CCN(C)C(=O)c1ccc2[nH]c3c4c(c5c(c3c2c1)C(=O)NC5=O)CCC4` [Compound 2cu], the IC50 was 151 nM.

Consider `CN(C)CCCOc1ccc2[nH]c3c4c(c5c(c3c2c1)C(=O)NC5=O)CCC4` [Compound 2as], for which the IC50 came out at 100 nM. For `CCNCc1ccc2[nH]c3c4c(c5c(c3c2c1)C(=O)NC5=O)CCC4` [Compound 2bk], the IC50 worked out at 32 nM. Regarding `O=C(CCC(=O)N1CCCC1C(=O)O)c1ccc2[nH]c3c4c(c5c(c3c2c1)C(=O)NC5=O)CCC4` (centres unmarked) [Compound 4j], the 50% inhibitory concentration (IC50) was determined as 2 nM.

`O=C(O)c1nccnc1C(=O)c1ccc2[nH]c3c4c(c5c(c3c2c1)C(=O)NC5=O)CCC4` [Compound 4k]: the half-maximal inhibitory concentration (IC50) is 1 nM. On to `CC(Br)C(=O)c1ccc2[nH]c3c4c(c5c(c3c2c1)C(=O)NC5=O)CCC4` (centres unmarked) [Compound 2f], for which the half-maximal inhibitory concentration (IC50) is 21 nM. As for `O=C1NC(=O)c2c1c1c(c3[nH]c4ccc(CNCc5ccccc5)cc4c23)CCC1` [Compound 2bq], the IC50 was 26 nM. As for `NCCNC(=O)CCC(=O)c1ccc2[nH]c3c4c(c5c(c3c2c1)C(=O)NC5=O)CCC4` [Compound 4e], the IC50 is 22 nM.

Regarding `O=C(CCC(=O)N1CCCCC1)c1ccc2[nH]c3c4c(c5c(c3c2c1)C(=O)NC5=O)CCC4` [Compound 4p], the IC50 is 10 nM. With `O=C(O)CCCC(=O)c1ccc2[nH]c3c4c(c5c(c3c2c1)C(=O)NC5=O)CCC4` [Compound 4n], the concentration for half-maximal inhibition (IC50) turned out to be 2 nM. With `O=C(NCc1ccc2[nH]c3c4c(c5c(c3c2c1)C(=O)NC5=O)CCC4)c1ccccc1` [Compound 2u, 3-(Benzoylaminomethyl)-5,7,8,9,10,11-hexahydrocyclopent[a]pyrrolo[3,4-c]carbazole-5(6H), 7-dione], the IC50 was determined as 37 nM.

As for `NCc1nc(-c2ccc3[nH]c4c5c(c6c(c4c3c2)C(=O)NC6=O)CCC5)cs1` [Compound 3k], the 50% inhibitory concentration (IC50) turned out to be 42 nM. Still for that read-out and setting: as for `CC(C)CC(=O)NCc1nc(-c2ccc3[nH]c4c5c(c6c(c4c3c2)C(=O)NC6=O)CCC5)cs1` [Compound 3r], the figure is 56 nM.

Turning to `CN(CC(=O)O)CC(=O)c1ccc2[nH]c3c4c(c5c(c3c2c1)C(=O)NC5=O)CCC4` [Compound 2l], the IC50 came out at 8 nM. Still for that read-out and setting: the figure for `CC(=O)c1ccc2[nH]c3c4c(c5c(c3c2c1)C(=O)NC5=O)CCC4` [Compound 2d] is 17 nM. In the case of `CC(O)c1ccc2[nH]c3c4c(c5c(c3c2c1)C(=O)NC5=O)CCC4` (centres unmarked) [Compound 2ax], the IC50 was 102 nM. For `O=C(CCC(=O)N1CCCC1)c1ccc2[nH]c3c4c(c5c(c3c2c1)C(=O)NC5=O)CCC4` [Compound 4t], the IC50 came to 16 nM. With `O=C(Cn1cncn1)c1ccc2[nH]c3c4c(c5c(c3c2c1)C(=O)NC5=O)CCC4` [Compound 2n], the IC50 is 15 nM. On the same count and under the same terms, as for `CNCc1ccc2[nH]c3c4c(c5c(c3c2c1)C(=O)NC5=O)CCC4` [Compound 2bt], the figure is 25 nM; as for `CCc1ccc2[nH]c3c4c(c5c(c3c2c1)C(=O)NC5=O)CCC4` [Compound 2az], 116 nM.

On to `NCCc1ccc2[nH]c3c4c(c5c(c3c2c1)C(=O)NC5=O)CCC4` [Compound 2be], for which the IC50 was 36 nM. Same read-out and setting: as for `O=C(O)C(=O)c1ccc2[nH]c3c4c(c5c(c3c2c1)C(=O)NC5=O)CCC4` [Compound 2bb], the figure is 5 nM; as for `NC(=O)c1ccc2[nH]c3c4c(c5c(c3c2c1)C(=O)NC5=O)CCC4` [Compound 2bh], 31 nM; as for `CC(=O)Nc1nc(-c2ccc3[nH]c4c5c(c6c(c4c3c2)C(=O)NC6=O)CCC5)c[nH]1` [Compound 3l], 47 nM.

With `CC(=O)NCc1ccc2[nH]c3c4c(c5c(c3c2c1)C(=O)NC5=O)CCC4` [Compound 2r, 3-(Acetylaminomethyl)-5,7,8,9,10,11-hexahydrocyclopent[a]pyrrolo[3,4-c]carbazole-5(6H), 7-dione], the half-maximal inhibitory concentration (IC50) stood at 13 nM. Consider `CC(C)(C)OC(=O)NCCC(=O)NCc1ccc2[nH]c3c4c(c5c(c3c2c1)C(=O)NC5=O)CCC4` [Compound 2ca], for which the half-maximal inhibitory concentration (IC50) is 95 nM. Regarding `O=C(CCC(=O)c1ccc2[nH]c3c4c(c5c(c3c2c1)C(=O)NC5=O)CCC4)NCCO` [Compound 4g], the IC50 was 9 nM.

The same assay, now with this note: Table 3; read-out: PARP IC50.
Turning to `O=C1NC(=O)c2c1c1c(c3[nH]c4ccccc4c23)CCC1` [Compound 1a, 5,7,8,9,10,11-hexahydrocyclopent[a]pyrrolo[3,4-c]carbazole-5(6H), 7-dione], the half-maximal inhibitory concentration (IC50) turned out to be 36 nM.

Staying with this assay, now noted: Table 7; read-out: PARP IC50.
In the case of `COc1ccc2c(c1)[nH]c1c3c(c4c(c12)C(=O)NC4=O)CCC3` [Compound 14a], the IC50 turned out to be 224 nM. The same measure, in the same setting: as for `COc1cccc2[nH]c3c4c(c5c(c3c12)C(=O)NC5=O)CCC4` [Compound 14b], the figure is 19 nM.

Still in this assay, the particulars now being: Table 18; read-out: PARP IC50.
Regarding `O=C1NC(=O)c2c1c1c(c3[nH]c4nc(O)ccc4c23)CCC1` [Compound 8n], the half-inhibitory concentration (IC50) is 6 nM. On to `CC(C)Oc1cccc2[nH]c3c4c(c5c(c3c12)C(=O)NC5=O)CCC4` [Compound 14h], for which the IC50 worked out at 207 nM.

With `CN(C)CN1C(=O)c2c3c(c4[nH]c5ccccc5c4c2C1=O)CCC3` [Compound 16i], the half-maximal inhibitory concentration (IC50) amounted to 53 nM. Take `COc1cccc2c1c1c3c(c4c(c1n2CN1CCOCC1)CCC4)C(=O)N(CN1CCOCC1)C3=O` [Compound 16a]: the IC50 turned out to be 10 nM. With `O=C1NC(=O)c2c1c1c(c3[nH]c4nc(O)c(Br)cc4c23)CCC1` [Compound 8p], the concentration for half-maximal inhibition (IC50) came out at 20 nM. In the case of `O=C1NC(=O)c2c1c1c(c3[nH]c4c(ccc[n+]4[O-])c23)CCC1` [Compound 8l], the half-inhibitory concentration (IC50) was 38 nM.

The IC50 is the concentration at which inhibition is half-maximal.

Source of the values: US8716493B2, “Multicyclic compounds and the use thereof” (Cephalon, Inc., priority 2000, dated 2014).
